Laboratory results from US11109593B2, “Isoxazolin-5-one derivative and herbicide containing same as active ingredient” (HOKKO CHEMICAL INDUSTRY CO., LTD., priority 2017, dated 2021).

Assays:
Assay type in all cases: in vivo
Echinochloa crus-galli [1] = assay: Test Example 1: herbicidal effect test by treatment of rice paddy soil (immediately after seeding); conditions: 120 g/10a active ingredient, dry weight vs untreated area, 14 days after treatment
How it was run: (§1)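 Application occurs immediately after seeding, with diluted emulsion added to paddy water (about 3 cm deep) over puddled, fertilized soil at 120 g active ingredient per 10 ares. Herbicidal rate is calculated from mean dry weight against untreated controls 14 days later.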

Scirpus juncoides [2] = assay: as above; conditions: 120 g/10a active ingredient, dry weight vs untreated area, 14 days after treatment
How it was run: as §1

[3] = test system: broad leaf weeds (Lindernia pyxidaria and Monochoria vaginalis); assay: as above; conditions: 120 g/10a active ingredient, dry weight vs untreated area, 14 days after treatment
How it was run: as §1

Echinochloa crus-galli [4] = assay: Test Example 2: herbicidal effect test by treatment during growing period in paddy rice cultivation (seven days after seeding); conditions: 120 g/10a active ingredient, assessed 14 days after treatment, dry weight vs untreated area
How it was run: (§2)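 Paddy soil in Wagner pots with compound fertilizer, puddled; 30 seeds per species sown at 0–1 cm, flooded ~3 cm, greenhouse. Seven days after seeding, water-diluted emulsions were dropped into the water at 120 g active ingredient per 10 ares. Duplicate pots; herbicidal rate from dry weight versus untreated, 14 days after treatment.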

Scirpus juncoides [5] = assay: as above; conditions: 120 g/10a active ingredient, assessed 14 days after treatment, dry weight vs untreated area
How it was run: as §2

[6] = test system: broad leaf weeds (Lindernia pyxidaria and Monochoria vaginalis); assay: as above; conditions: 120 g/10a active ingredient, assessed 14 days after treatment, dry weight vs untreated area
How it was run: as §2

Amaranthus viridis [7] = assay: Test Example 3: herbicidal effect test by treatment of dry field farming soil (one day after seeding); conditions: 120 g/10a active ingredient, evaluated 14 days after treatment
How it was run: (§3)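 Pre-emergence soil treatment: alluvial dry-field soil, 20 seeds per species mixed into top 1 cm, emulsion diluted in water sprayed one day after seeding at 100 L per 10 ares (120 g active ingredient per 10 ares). Duplicate pots; herbicidal rate (%) from dry weight vs untreated at 14 days.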

Chenopodium album [8] = assay: as above; conditions: 120 g/10a active ingredient, evaluated 14 days after treatment
How it was run: as §3

Echinochloa crus-galli [9] = assay: as above; conditions: 120 g/10a active ingredient, evaluated 14 days after treatment
How it was run: as §3

southern crabgrass [10] = assay: as above; conditions: 120 g/10a active ingredient, evaluated 14 days after treatment
How it was run: as §3

Amaranthus viridis [11] = assay: Test Example 4: herbicidal effect test by treatment of leave and stem in dry field farming (seven days after seeding); conditions: 120 g/10a active ingredient; emulsion sprayed seven days after seeding; evaluated 14 days after treatment
How it was run: (§4)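 Weeds were seeded at 20 seeds per species into the top 1 cm of alluvial upland soil in pots, then sprayed 7 days after seeding with water-diluted emulsifiable concentrate at 100 L/10 a, giving 120 g active ingredient/10 a. Duplicate pots; herbicidal rate (%) was 14 days post-treatment, from dry weight versus untreated.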

Chenopodium album [12] = assay: as above; conditions: 120 g/10a active ingredient; emulsion sprayed seven days after seeding; evaluated 14 days after treatment
How it was run: as §4

Echinochloa crus-galli [13] = assay: as above; conditions: 120 g/10a active ingredient; emulsion sprayed seven days after seeding; evaluated 14 days after treatment
How it was run: as §4

southern crabgrass [14] = assay: as above; conditions: 120 g/10a active ingredient; emulsion sprayed seven days after seeding; evaluated 14 days after treatment
How it was run: as §4

Row | SMILES | Herbicidal rate (%) Echinochloa crus-galli (Echinochloa crus-galli [1]) | Herbicidal rate (%) Scirpus juncoides (Scirpus juncoides [2]) | Herbicidal rate (%) Lindernia pyxidaria [3] | Herbicidal rate (%) Monochoria vaginalis [3] | Herbicidal rate (%) Echinochloa crus-galli (Echinochloa crus-galli [4]) | Herbicidal rate (%) Scirpus juncoides (Scirpus juncoides [5]) | Herbicidal rate (%) Lindernia pyxidaria [6] | Herbicidal rate (%) Monochoria vaginalis [6] | herbicidal rate, Amaranthus viridis (Amaranthus viridis [7]) | herbicidal rate, Chenopodium album (Chenopodium album [8]) | herbicidal rate, Echinochloa crus-galli (Echinochloa crus-galli [9]) | herbicidal rate, southern crabgrass (southern crabgrass [10]) | herbicidal effect (herbicidal rate), Amaranthus viridis (Amaranthus viridis [11]) | herbicidal effect (herbicidal rate), Chenopodium album (Chenopodium album [12]) | herbicidal effect (herbicidal rate), Echinochloa crus-galli (Echinochloa crus-galli [13]) | herbicidal effect (herbicidal rate), southern crabgrass (southern crabgrass [14])
1 | CCC(C)n1oc(=O)c(Cc2ccccc2N(C(=O)C(C)C)S(=O)(=O)C(F)(F)F)c1C (stereo not shown) [Compound 1-330] | 90% | 90% | 90% | 90% | 90% | 90% | 90% | 90% | 90% | 90% | 90% | 90% | 40% | 40% | 90% | 90%
2 | CCC(CC)n1oc(=O)c(Cc2ccccc2N(C(=O)C(C)C)S(=O)(=O)C(F)(F)F)c1C [Compound 1-331] | 90% | 90% | 90% | 90% | 90% | 90% | 90% | 90% | 90% | 90% | 90% | 90% | 40% | 40% | 90% | 90%
3 | Cc1c(Cc2ccccc2N(C(=O)C(C)C)S(=O)(=O)C(F)(F)F)c(=O)on1CC(C)(C)C [Compound 1-333] | 90% | 90% | 90% | 90% | 90% | 90% | 90% | 90% | 90% | 90% | 90% | 90% | 40% | 40% | 90% | 90%
4 | CCCC(C)n1oc(=O)c(Cc2ccccc2N(C(=O)C(C)C)S(=O)(=O)C(F)(F)F)c1C (stereo not shown) [Compound 1-334] | 100% | 90% | 70% | 80% | 100% | 90% | 70% | 70% | 50% | 40% | 90% | 70% | 60% | 60% | 90% | 90%
